How the values were obtained:
[1] = molecular target: T1, androgen receptor (AR-LBD) (Rattus norvegicus, UniProt P15207); test: Evaluation of androgen receptor affinity (PolarScreen Androgen Receptor Competitor Assay Kit, Red; fluorescence polarization); details: 22° C. for 5 hours, relative to binding rate of 1 μM DHT, read-out: AR affinity (pEC50) (converted)
T1 construct: 5 μL of 2×AR-LBD/Fluoromone AL Red Complex contained in the kit; purchased Invitrogen
T1 sequence (P15207 651-882 limits assumed): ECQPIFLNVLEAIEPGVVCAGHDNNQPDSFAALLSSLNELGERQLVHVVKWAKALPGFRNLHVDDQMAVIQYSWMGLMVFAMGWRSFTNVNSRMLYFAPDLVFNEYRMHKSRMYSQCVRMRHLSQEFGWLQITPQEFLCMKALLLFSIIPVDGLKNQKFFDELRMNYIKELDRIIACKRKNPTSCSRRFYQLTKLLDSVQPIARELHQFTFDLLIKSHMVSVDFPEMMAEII
In short: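 pEC50 values reflect tracer displacement from AR-LBD (Fluoromone AL Red complex) measured by fluorescence polarization after 5 h at 22° C, normalized to 1 μM DHT and fitted with a 4-parameter model.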

human androgen receptor = molecular target: T2, human androgen receptor (Homo sapiens, UniProt P10275); test: Reporter assay of an androgen receptor responsive sequence (luciferase, transiently transfected HEK293 cells); assay type: cell-based; details: 24 hours incubation, relative to activity of 100 nM DHT, read-out: AR transcriptive activity (pEC50) (converted)
T2 construct: expressed in transfected cells; host or cells: HEK293
T2 sequence (P10275 1-920): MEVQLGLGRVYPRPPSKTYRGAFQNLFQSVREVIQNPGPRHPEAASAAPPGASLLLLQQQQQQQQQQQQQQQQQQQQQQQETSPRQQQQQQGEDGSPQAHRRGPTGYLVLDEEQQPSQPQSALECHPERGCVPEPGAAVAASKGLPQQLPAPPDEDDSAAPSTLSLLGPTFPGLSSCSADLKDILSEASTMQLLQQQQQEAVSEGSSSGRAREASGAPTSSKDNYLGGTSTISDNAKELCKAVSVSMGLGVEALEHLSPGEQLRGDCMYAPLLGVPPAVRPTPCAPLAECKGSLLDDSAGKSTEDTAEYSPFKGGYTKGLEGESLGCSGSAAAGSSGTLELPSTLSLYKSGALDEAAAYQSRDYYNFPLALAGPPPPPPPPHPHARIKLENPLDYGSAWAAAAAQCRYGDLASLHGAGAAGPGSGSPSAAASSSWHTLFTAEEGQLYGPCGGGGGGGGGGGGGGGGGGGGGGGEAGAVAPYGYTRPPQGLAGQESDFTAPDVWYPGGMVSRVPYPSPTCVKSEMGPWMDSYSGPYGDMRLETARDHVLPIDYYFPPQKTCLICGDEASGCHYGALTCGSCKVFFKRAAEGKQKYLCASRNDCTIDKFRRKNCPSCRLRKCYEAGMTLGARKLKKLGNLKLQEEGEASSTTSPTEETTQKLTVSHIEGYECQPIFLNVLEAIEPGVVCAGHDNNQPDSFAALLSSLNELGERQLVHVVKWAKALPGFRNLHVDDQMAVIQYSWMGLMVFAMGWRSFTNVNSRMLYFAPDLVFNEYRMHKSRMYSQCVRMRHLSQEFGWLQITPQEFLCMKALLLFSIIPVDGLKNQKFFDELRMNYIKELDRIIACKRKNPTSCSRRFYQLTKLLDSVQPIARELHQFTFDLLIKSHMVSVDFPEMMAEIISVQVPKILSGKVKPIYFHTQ
In short: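 HEK293 cells transiently transfected for 3 h with ARE-firefly luciferase, full-length human AR and TK-Renilla plasmids, then exposed to compound for 24 h at 37 °C in 5% charcoal-treated FBS/DMEM. Dual-Glo luminescence read; pEC50 from 4-parameter fit relative to 100 nM DHT.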

## COCCCS(=O)(=O)NC(=O)c1nc(N(Cc2ccc(OC(F)F)c(F)c2)c2ccc(C#N)cc2)sc1C [Compound 526, 2-[4-cyano-N-[[4-(difluoromethoxy)-3-fluoro-phenyl]methyl]anilino]-N-(3-methoxypropylsulfonyl)-5-methyl-thiazole-4-carboxamide]
[1]
  EC50: 39.8 nM
Human androgen receptor
  EC50: 100 nM

## Cc1sc(N(Cc2ccoc2)c2ccc(C#N)cc2)nc1C(=O)NS(C)(=O)=O [Compound 86, 2-[4-cyano-N-(3-furylmethyl)anilino]-5-methyl-N-methylsulfonyl-thiazole-4-carboxamide]
[1]
  EC50: 251 nM
Human androgen receptor
  EC50: 1580 nM

## Cc1sc(N(Cc2ccc(Cl)cc2)Cc2csc3cc(C#N)ccc23)nc1C(=O)NS(C)(=O)=O [Example 305, 2-[(4-chlorophenyl)methyl-[(6-cyanobenzothiophen-3-yl)methyl]amino]-5-methyl-N-methylsulfonyl-thiazole-4-carboxamide]
[1]
  EC50: > 2000 nM
Human androgen receptor
  EC50: > 10000 nM

## Cc1sc(N(Cc2ccccc2)c2ccc(C#N)c(F)c2)nc1C(=O)NS(C)(=O)=O [Example 222, 2-(N-benzyl-4-cyano-3-fluoro-anilino)-5-methyl-N-methylsulfonyl-thiazole-4-carboxamide]
[1]
  EC50: 200 nM
Human androgen receptor
  EC50: 251 nM

## COc1c(F)c(CN(c2ccc(C#N)cc2)c2nc(C(=O)NS(C)(=O)=O)c(C)s2)c(F)c(F)c1C(F)(F)F [Compound 418, 2-[4-cyano-N-[[2,3,6-trifluoro-5-methoxy-4-(trifluoromethyl)phenyl]methyl]anilino]-5-methyl-N-methylsulfonyl-thiazole-4-carboxamide]
[1]
  EC50: 50.1 nM
Human androgen receptor
  EC50: 158 nM

## Cc1sc(N(Cc2ccc(OC(F)F)cc2)c2ccc(C(F)(F)F)nc2)nc1C(=O)NS(C)(=O)=O [Compound 472, 2-[[4-(difluoromethoxy)phenyl]methyl-[6-(trifluoromethyl)-3-pyridyl]amino]-5-methyl-N-methylsulfonyl-thiazole-4-carboxamide]
[1]
  EC50: 126 nM
Human androgen receptor
  EC50: 398 nM

## Cc1sc(N(Cc2ccc(F)cc2)c2ccc(C#N)cc2)nc1C(=O)NS(C)(=O)=O [Compound 15, 2-[4-cyano-N-[(4-fluorophenyl)methyl]anilino]-5-methyl-N-methylsulfonyl-thiazole-4-carboxamide]
[1]
  EC50: 63.1 nM
Human androgen receptor
  EC50: 39.8 nM

## COCCCS(=O)(=O)NC(=O)c1nc(N(Cc2cc(F)cc(OC(F)F)c2)c2ccc(C#N)cc2)sc1C [Compound 519, 2-[4-cyano-N-[[3-(difluoromethoxy)-5-fluoro-phenyl]methyl]anilino]-N-(3-methoxypropylsulfonyl)-5-methyl-thiazole-4-carboxamide]
[1]
  EC50: 25.1 nM
Human androgen receptor
  EC50: 158 nM

## CS(=O)(=O)NC(=O)c1nc(N(Cc2ccccc2)c2ccc(C#N)cc2)sc1Cl [Compound 657, 2-(N-benzyl-4-cyano-anilino)-5-chloro-N-methylsulfonyl-thiazole-4-carboxamide]
[1]
  EC50: 31.6 nM
Human androgen receptor
  EC50: 50.1 nM

## COCCCS(=O)(=O)NC(=O)c1nc(N(Cc2ncc(Br)cc2F)c2ccc(C#N)cc2)sc1C [Compound 535, 2-[N-[(5-bromo-3-fluoro-2-pyridyl)methyl]-4-cyano-anilino]-N-(3-methoxypropylsulfonyl)-5-methyl-thiazole-4-carboxamide]
[1]
  EC50: 126 nM
Human androgen receptor
  EC50: 316 nM

## Cc1sc(N(Cc2cc(F)c(F)c(F)c2)c2ccc(C#N)cc2)nc1C(=O)NS(C)(=O)=O [Compound 125, 2-[4-cyano-N-[(3,4,5-trifluorophenyl)methyl]anilino]-5-methyl-N-methylsulfonyl-thiazole-4-carboxamide]
[1]
  EC50: 31.6 nM
Human androgen receptor
  EC50: 126 nM

## Cc1sc(N(CCc2ccc(C#N)cc2)Cc2ccc(OC(F)(F)F)cc2)nc1C(=O)NS(=O)(=O)Cc1cccc(F)c1 [Compound 727, 2-[2-(4-cyanophenyl)ethyl-[[4-(trifluoromethoxy)phenyl]methyl]amino]-N-[(3-fluorophenyl)methylsulfonyl]-5-methyl-thiazole-4-carboxamide]
[1]
  EC50: 200 nM
Human androgen receptor
  EC50: > 10000 nM

## Cc1sc(N(CC2CCCCC2)c2ccc(C#N)cc2)nc1C(=O)NS(C)(=O)=O [Compound 344, 2-[4-cyano-N-(cyclohexylmethyl)anilino]-5-methyl-N-methylsulfonyl-thiazole-4-carboxamide]
[1]
  EC50: 39.8 nM
Human androgen receptor
  EC50: 794 nM

## Cc1sc(N(Cc2ccc(Cl)c(Cl)c2)c2ccc(C#N)cc2)nc1C(=O)NS(C)(=O)=O [Compound 100, 2-[4-cyano-N-[(3,4-dichlorophenyl)methyl]anilino]-5-methyl-N-methylsulfonyl-thiazole-4-carboxamide]
[1]
  EC50: 31.6 nM
Human androgen receptor
  EC50: 15.8 nM

## CS(=O)(=O)NC(=O)c1nc(N(Cc2ccc3occc3c2)c2ccc(C#N)cc2)sc1Br [Example 221, 2-[N-(benzofuran-5-ylmethyl)-4-cyano-anilino]-5-bromo-N-methylsulfonyl-thiazole-4-carboxamide]
[1]
  EC50: 39.8 nM
Human androgen receptor
  EC50: 50.1 nM

## Cc1sc(N(CCOCc2ccccc2)c2ccc(C#N)cc2)nc1C(=O)NS(C)(=O)=O [Compound 367, 2-[N-(2-benzyloxyethyl)-4-cyano-anilino]-5-methyl-N-methylsulfonyl-thiazole-4-carboxamide]
[1]
  EC50: 158 nM
Human androgen receptor
  EC50: > 10000 nM

## Cc1sc(N(Cc2cccc(OC(F)(F)F)c2)c2ccc(C#N)cc2)nc1C(=O)NS(C)(=O)=O [Compound 343, 2-[4-cyano-N-[[3-(trifluoromethoxy)phenyl]methyl]anilino]-5-methyl-N-methylsulfonyl-thiazole-4-carboxamide]
[1]
  EC50: 31.6 nM
Human androgen receptor
  EC50: 100 nM

## CS(=O)(=O)NC(=O)c1nc(N(Cc2ccc(C(F)(F)F)cn2)c2ccc(C#N)cc2)sc1Br [Compound 643, 5-bromo-2-[4-cyano-N-[[5-(trifluoromethyl)-2-pyridyl]methyl]anilino]-N-methylsulfonyl-thiazole-4-carboxamide]
[1]
  EC50: 79.4 nM
Human androgen receptor
  EC50: 63.1 nM

## Cc1oc(N(Cc2ccc3ncsc3c2)c2ccc(C#N)cc2)nc1C(=O)NS(C)(=O)=O [Compound 616, 2-[N-(1,3-benzothiazol-6-ylmethyl)-4-cyano-anilino]-5-methyl-N-methylsulfonyl-oxazole-4-carboxamide]
[1]
  EC50: 251 nM
Human androgen receptor
  EC50: > 10000 nM

## Cc1sc(N(CCc2ccc(Cl)cc2)Cc2ccc(Cl)cc2)nc1C(=O)NS(C)(=O)=O [Compound 692, 2-[2-(4-chlorophenyl)ethyl-[(4-chlorophenyl)methyl]amino]-5-methyl-N-methylsulfonyl-thiazole-4-carboxamide]
[1]
  EC50: 20 nM
Human androgen receptor
  EC50: 79.4 nM

## CSc1ccccc1CN(c1ccc(C#N)cc1)c1nc(C(=O)NS(C)(=O)=O)c(C)s1 [Compound 452, 2-[4-cyano-N-[(2-methylsulfanylphenyl)methyl]anilino]-5-methyl-N-methylsulfonyl-thiazole-4-carboxamide]
[1]
  EC50: 50.1 nM
Human androgen receptor
  EC50: 200 nM

## CS(=O)(=O)NC(=O)c1nc(N(Cc2ccc(Cl)cc2)c2ccc(C#N)cc2)sc1C1CC1 [Compound 661, 2-[N-[(4-chlorophenyl)methyl]-4-cyano-anilino]-5-cyclopropyl-N-methylsulfonyl-thiazole-4-carboxamide]
[1]
  EC50: 15.8 nM
Human androgen receptor
  EC50: 501 nM

## COCCCS(=O)(=O)NC(=O)c1nc(N(Cc2ccc(Cl)cc2)c2ccc(C#N)cc2)sc1C1CC1 [Compound 665, 2-[N-[(4-chlorophenyl)methyl]-4-cyano-anilino]-5-cyclopropyl-N-(3-methoxypropylsulfonyl)thiazole-4-carboxamide]
[1]
  EC50: 20 nM
Human androgen receptor
  EC50: > 10000 nM
